# In patent US7192607B2, “Formulations for the prevention or the treatment of diseases affecting mucosae or skin, or for pregnancy prevention, and an applicator for the delivery of topical formulations into mucosal cavities” (Infectio Recherche Inc, priority 2002, dated 2007):
# How the values were obtained:
# [1] = test system: various HSV-1 and HSV-2 strains; assay: Infectivity of HSV strains pretreated with SLS on Vero cells, text summary across strains; assay type: cell-based, Herpes simplex virus; details: pretreatment of the viruses with 50 μM SLS
# Protocol: The effect of pretreating different strains of herpes viruses with SLS or DS on their viral infectivities to susceptible cells has been evaluated. In brief, cells were seeded in 24 well-plates (Costar, Montreal, QC, Canada). Prior to infection, the virus was either suspended in culture medium or phosphate buffered saline (PBS), or incubated with different concentrations of SLS in PBS for 1 h at 37° C. At confluency, cells were incubated with viral suspensions by centrifuging the plates (750× g for 45 min at 20° C.) to allow virus adsorption. Virus was removed and cell sheets were then overlaid with 0.5 ml of 0.6% agarose Seaplaque (Marine Colloids, Rockland, Md.) prepared in appropriate culture medium. The plates were incubated for 2 days at 37° C. Cells were then fixed with 10% formaldehyde in PBS for 20 min, washed with deionized water and stained with 0.05% methylene blue. Viral infectivity was evaluated via the determination of Plaque Forming Units (PFU).
# HSV-1 (strain F) infectivity was reduced to 21% when viral particles were pretreated with 25 μM SLS. The infectivities of all HSV-2 strains were between 50 to 70% following preincubation with 25 μM SLS. A complete loss of the infectivity of all strains tested were obtained following pretreatment of the viruses with 50 μM SLS.
# HSV-1 (strain F) [2] = assay: Murine cutaneous infection model, HSV-1 pretreated with SLS or DS; assay type: in vivo, hairless mice (SKH1)
# Protocol: The effect of pretreating HSV-1 (strain F) with SLS on viral infectivity has also been evaluated in a murine cutaneous infection model. Female hairless mice (SKH1; Charles River Breeding Laboratories Inc., St-Constant, QC, Canada), 5–6 weeks old were used throughout this study. […] Mice were anesthetized by intraperitoneal injection of a mixture containing 70 mg/kg ketamine hydrochloride (Rogarsetic* injection USP; Rogar/STB Inc. Montreal, QC, Canada) and 11.5 mg/kg xylazine (Rompun®; Miles Canada Inc., Etobicoke, ON, Canada). The virus was inoculated on the lateral side of the body in the left lumbar skin area. The skin was scratched six times in a crossed-hatched pattern with a 27-gauge needle held vertically. Viral suspension (50 μl) was deposited onto the scarified area and rubbed for 10 to 15 see with a cotton tipped applicator saturated with EMEM+2% FBS or SLS or DS solutions. The scarified area was protected with a corn cushion which was maintained on the mice body with surgical tape. The porous inner wall of the aperture of the corn cushion was impermeabilized with tissue adhesive prior to use to prevent absorption of the drug. The aperture of the corn cushion was also closed with surgical tape. Mice were then returned to their cages and observed twice daily.
# In infected untreated mice, no pathological signs of cutaneous infection were visible during the first four days following infection and only the scarified area remained appearent. On day 5, herpetic skin lesions began to appear in some mice in the form of small vesicles distant from the inoculation site. On day 6, almost all untreated mice developed herpetic skin lesions in the form of a 4–5 mm wide band extending from the spine to the ventral midline of the infected dermatome similar to zoster-like infections. Maximal mean lesion score was observed on day 8. Mean lesion score decreased thereafter from day 11 to day 15 because of spontaneous regression of cutaneous lesions in some mice. […] Of prime importance, all mice infected with the virus pretreated with 100 μM SLS survived the infection (data not shown).
# HSV-1 (strain F) [3] = assay: Electron microscopy of Vero cells infected with HSV-1 (strain F) pretreated with SLS; assay type: cell-based, Herpes simplex virus type-1
# Protocol: The appearance of HSV-1 (strain F) pretreated with varying SLS concentrations (50, 75 and 100 μM) for 1 h at 37° C. has been evaluated in Vero cells using electron microscopy. In brief, cells (80–90% confluent) were infected with the virus (approximately 70 PFU/ml in 14 ml) for 48 h at 37° C. in a 5% CO2 atmosphere. Cells were scrapped off from the dishes and resuspended in culture medium. Cells were centrifuged (515× g for 10 min at 4° C.) and the supernatant was decanted and cells were resuspended in approximately 500 μl medium. Cells were transferred in an eppendorf tube and centrifuged at (10,000× g for 5 min at 4° C.). The pellet was resuspended in approximately 200 μl of 20% bovine serum albumin (BSA). Few drops of 25% glutaraldehyde were added to the mixture and samples were immediately put in an ice bath to allow BSA polymerization. The pellet was then cut in 1 mm^3 samples which were then fixed in 2% glutaraldehyde in PBS for 1 h, 1% OsO4 in PBS for 1 h and then with 0.1% tannic acid in PBS for 30 min. Samples were rinsed 3 times in PBS for 5 min between each step. Samples were stained with 2% uranyl acetate in 10% ethanol for 30 min. Samples were dehydrated and embedded in Epon following routine procedures. Sections (approximately 75 nm thickness) were mounted on copper grid (200 mesh). […]
# HIV-1 (strain NL4-3) = assay: Infectivity of HIV-1 (strain NL4-3) pretreated with SLS to 1G5 cells (luciferase activity); assay type: cell-based; details: virus pretreated with 500 μM SLS for 1 h at 37° C.; FIG. 3
# Protocol: The effect of pretreating HIV-1 (strain NL4-3) with SLS on its infectivity to 1G5 cells, a Jurkat E6-1 derivative that harbors two stably integrated constructs made up of the luciferase gene under the control of the HIV-1SF2 LTR, has been also evaluated. In brief, prior to infection, the virus was incubated with either culture medium or 500 μM SLS for 1 h at 37° C. Cells (1×10^5 cells/well) were then incubated with HIV-1 strain NL4-3 (10 ng of p24) for 2 h at 37° C. under a 5% CO2 atmosphere. Afterwards, cells were washed, resuspended in 200 μl of complete culture medium and transferred in a 96-well flat-bottomed tissue culture plate (Microtest III, Falcon; Becton Dickinson, Lincoln Park, N.J.). After a 48 h incubation time at 37° C., cells were lysed, subject to a freeze-thaw cycle and luciferase activity was monitored using a microplate luminometer (MLX; Dynex Technologies, Chantilly, Va.).
# HIV-1 = details: Howett et al., 1999; cited from earlier work
# [4] = virus pretreated with 100 μM SLS for 1 h at 37° C.
structure (smiles),measurement,setting,value
"CCCCCCCCCCCCOS(=O)(=O)[O-].[Na+] [SLS, Sodium lauryl sulfate]",infectivity of all strains tested,[1],complete loss
same,cutaneous lesions,HSV-1 (strain F) [2]; [4],did not demonstrate any signs of cutaneous lesions
same,mice that survived the infection,"HSV-1 (strain F) [2]; virus pretreated with 100 μM SLS, data not shown",all
same,mean lesion score,HSV-1 (strain F) [2]; virus pretreated with 6.25 and 25 μM SLS for 1 h at 37° C.,did not demonstrate a significant reduction
same,cells with empty capsids in the nuclei (electron microscopy),HSV-1 (strain F) [3]; [4],only a few cells with empty capsids in the nuclei could be detected
same,appearance of viral particles in infected Vero cells (electron microscopy),"HSV-1 (strain F) [3]; virus pretreated with 50, 75 and 100 μM SLS for 1 h at 37° C.",No mature nucleocapsid could be observed
same,HIV-1 infectivity to 1G5 cells,HIV-1 (strain NL4-3),almost completely inhibited
same,inactivation of HIV-1,HIV-1,potent inactivator
